Consider 4 compounds from US20110172301A1, “Use of anti-oxidant compounds for muscle recovery” (DSM IP ASSETS B.V., priority 2004, published 2011).

Experiment [1] in a line: O2•- scavenging (xanthine/xanthine oxidase, NBT reduction). In kind it is biochemical. Particulars: 50% decrease in the reduction of NBT; xanthine 150 μM, XO 5.5 mU/ml, pH 7.8, 37° C., n = 3; read-out: O2•− scavenging activity, IC50 ± SEM. How it is done: O2•- were generated by the reaction of xanthine (150 μM) and xanthine oxidase (XO) (5.5 mU/ml) in 50 mM potassium phosphate buffer (pH 7.8). O2•-radicals were detected by nitroblue tetrazolium (NBT, 50 μM). NBT undergoes reduction by O2•- to its formazan. The rate of this reduction was monitored spectrophotometrically at 560 nm during 2 minutes. Various concentrations of a scavenger were added and incubated at 37° C. The reaction was started by the addition of XO. The O2•-scavenging potential is expressed as the concentration of the scavenger giving a 50% decrease in the reduction of NBT (IC50).
To adjust for a possible inhibitory effect of the scavenger on the activity of XO, the highest concentration of the scavenger was incubated at 37° C. and subsequently the rate of the urate formation was measured at 293 nm during 2 minutes.

Experiment [2] in a line: ONOOH scavenging (protection against ONOOH induced DHR-123 oxidation). Format: biochemical. Particulars: 50% inhibition of oxidation of DHR-123; 5 μM DHR-123, 0.7 μM ONOOH, pH 7.4, 37° C., n = 3; read-out: ONOO− scavenging activity, IC50 ± SEM. As for the experimental part:
The protection against ONOOH induced DHR-123 oxidation of the compounds was measured as described by Kooy et al (Peroxynitrite-mediated oxidation of dihydrorhodamine 123. Free Radic Biol Med, 16; 149-56). In short, 5 μM DHR-123 and various concentrations of a scavenger were incubated in 100 mM sodium phosphate buffer (pH 7.4) at 37° C. Subsequently, ONOOH was added by pipetting a 10 μl aliquot into the tube while rapid vortexing, reaching a final concentration of 0.7 μM. Fluorescence measurements were performed with excitation and emission wavelengths of respectively 500 and 536 nm. The effects are expressed as the concentration of the scavenger giving 50% inhibition of the oxidation of DHR-123 (IC50).

The subject of a further experiment is diaphragm muscle strips. Description: Organ bath experiments: force of diaphragm strips after H2O2 incubation. The arrangement: species or system Male Lewis rats. The note with it: all applied stimulation frequencies, compared with control; FIG. 1. An excerpt:
Male Lewis rats (age between 12 and 14 weeks old) were used. After decapitation, the diaphragm was rapidly excised, and small strips (around 2 mm width and 1 cm long) were cut and subsequently mounted in thermostated organ baths, containing Krebs buffer gassed with a mixture of 95% O2 and 5% CO2, pH 7.4. Each diaphragm strip was connected vertically to an isometric transducer. The composition of the Krebs buffer was (mM): NaCl (117.5), KCl (5.6), MgSO4 (1.18), CaCl2 (2.5), NaHPO4 (1.28), NaHCO3 (25) and glucose (5.5). During the experiment, the buffer was changed every 15 minutes. Field stimulation was created along the entire length of each muscle strip with platinum electrodes. At the beginning of the experiment, the strips were washed during 45 minutes at room temperature to minimize temperature dependent deterioration. Thereafter, the water bath was turned on at 37° C. (15 minutes before the start of the experiments). […] First the Pt (twitch tension at a stimulation of 1 Hz) and Po (maximal specific tension at a stimulation of 100 Hz, 250 ms duration) were determined. Thereafter, the response of the diaphragm muscle strips to increasing stimulus frequencies was assessed at Lo by the application of 10, 20, 33, 50 and 100 Hz-pulses applied in 250 ms trains. […] After that were again determined: Pt, Po, force-frequency and fatigue.

A word on the IC50: it is the concentration needed to halve the response being measured.

As for `OCCc1ccc(O)cc1` [Tyrosol], the IC50 in experiment [1] was over 200 µM; in experiment [2], 99 ± 16 µM.
Consider `COc1cc(CCO)ccc1O` [Homovanillic alcohol], for which the IC50 in experiment [1] is over 200 µM; in experiment [2] it was 6.6 ± 0.2 µM.
The matching figures for `O=C(O)CCCC[C@@H]1CCSS1` (racemic) [Lipoic acid, reference compound]: over 100 µM and over 200 µM.
For the compound `OO` [H2O2, hydrogen peroxide], in the experiment on diaphragm muscle strips, the “effect on muscle force” value is “dose-dependently reduces the force”.
